The numbers were not newly measured in patent US12376586B2, “Microcapsules comprising cinmethyln in the core and a polyurea derived from diphenylmethane diisocyanate or an oligomer thereof” (BASF Agro B.V., priority 2017, dated 2025), which cites them from elsewhere.

SMILES strings stand for the structures.

The conditions of series [1]: at 20° C.
For series [2] the following is noted: at 20° C. The source holds these as a separate data set.

Turning to `Cc1ccccc1CO[C@@H]1C[C@]2(C(C)C)CC[C@@]1(C)O2` (racemic) [Cinmethylin, (±)-2-exo-(2-methylbenzyloxy)-1-methyl-4-isopropyl-7-oxabicyclo[2.2.1]heptane], in series [1], the vapor pressure is listed as 8.1·10^−3 Pa. Besides, the solubility in water in series [2] is 0,063 g·L^−1.
